Test results taken from patent publication US20250230193A1, “CYCLIC COMPOUND HAVING SELECTIVE KRAS INHIBITORY EFFECT ON HRAS AND NRAS” (CHUGAI SEIYAKU KABUSHIKI KAISHA, priority 2022, published 2025).
*1 amine or outer side, *2 acyl side, *3 side chain or, on linkers, in order; H or OH if unused. Where a SMILES comes first, the peptide text is derived from it. Bridges are numbered along the chain shown (N, C = ends). [ ]: non-standard residue; d: D form. The star is where a group is joined. hPhe(3-Cl-4-CF3) = N[C@@H](CCc1ccc(C(F)(F)F)c(Cl)c1)C(=O)O; NPrPhe(4-CF3) = CCCN[C@@H](Cc1ccc(C(F)(F)F)cc1)C(=O)O; X26 = COCCCN([C@@H](Cc1ccc(C)cc1)C(=O)[*:2])[*:1]; NMeGly(cPent) = CN[C@H](C(=O)O)C1CCCC1; Pro(4,4-F2) = O=C(O)[C@@H]1CC(F)(F)CN1; NMeD = CN[C@@H](CC(=O)O)C(=O)O; NMeL = CN[C@@H](CC(C)C)C(=O)O; Morpholide = C1CN(*)CCO1; Ac5c = NC1(C(=O)O)CCCC1; NEtG = CCNCC(=O)O; Sar = CNCC(=O)O

Tests used:
[1] = biological target: GDP-bound NRAS wild-type protein (Homo sapiens, UniProt P01111); experiment: Binding to NRAS by surface plasmon resonance (SPR), Single Cycle Kinetics; details: for NRAS/KRAS (ratio of KD value with respect to NRAS to KD value with respect to KRAS) / NRAS/KRAS (ratio of KD for GDP-bound NRAS wild-type to KD for KRAS): SPR; for NRAS/KRAS (ratio of KD value with respect to NRAS to KD value with respect to KRAS): GDP-bound NRAS wild-type vs GDP-bound KRAS wild-type
Sequence of GDP-bound NRAS wild-type protein (P01111 whole entry): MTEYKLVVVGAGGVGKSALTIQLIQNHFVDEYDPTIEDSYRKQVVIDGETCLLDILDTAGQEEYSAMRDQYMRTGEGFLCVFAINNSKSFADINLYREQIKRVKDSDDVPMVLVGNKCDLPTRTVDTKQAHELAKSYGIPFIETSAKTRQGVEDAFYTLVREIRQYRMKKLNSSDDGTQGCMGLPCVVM

[2] = biological target: GDP-bound HRAS wild-type protein (Homo sapiens, UniProt P01112); experiment: Binding to HRAS by surface plasmon resonance (SPR), Single Cycle Kinetics; details: for HRAS/KRAS (ratio of KD value with respect to HRAS to KD value with respect to KRAS) / HRAS/KRAS (ratio of KD for GDP-bound HRAS wild-type to KD for KRAS): SPR; for HRAS/KRAS (ratio of KD value with respect to HRAS to KD value with respect to KRAS): GDP-bound HRAS wild-type vs GDP-bound KRAS wild-type
Sequence of GDP-bound HRAS wild-type protein (P01112 whole entry): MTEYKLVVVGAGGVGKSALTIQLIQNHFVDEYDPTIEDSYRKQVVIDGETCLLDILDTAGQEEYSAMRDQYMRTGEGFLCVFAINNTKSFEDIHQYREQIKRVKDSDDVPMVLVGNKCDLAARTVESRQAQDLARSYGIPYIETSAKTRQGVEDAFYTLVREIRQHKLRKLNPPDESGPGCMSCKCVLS

CCO[C@@H]1C[C@H]2C(=O)NC3(CC(C)(C)C3)C(=O)N(C)[C@@H](C(CC)CC)C(=O)N(C)[C@H](C(=O)N3CCCC3)CC(=O)N(C)[C@@H](COC)C(=O)N[C@@H]([C@@H](C)CC)C(=O)N(C)CC(=O)N(C)[C@H]3C/C=C\CCN(C3=O)[C@@H](Cc3ccc(C(F)(F)F)cc3)C(=O)N(C)CC(=O)N[C@@H](CCc3ccc(C(F)(F)F)c(Cl)c3)C(=O)N2C1 [PP2128]
NRAS/KRAS (ratio of KD value with respect to NRAS to KD value with respect to KRAS) [1]: AA (a compound having 20 or more is denoted as AA)
HRAS/KRAS (ratio of KD value with respect to HRAS to KD value with respect to KRAS) [2]: A (a compound having 10 or more and less than 20 is denoted as A)

C#CCN1CC(=O)N(C)[C@H]2C/C=C\CCN(C2=O)[C@@H](Cc2ccc(C)cc2)C(=O)N(C)CC(=O)N[C@@H](CCc2ccc(C(F)(F)F)c(OC)c2)C(=O)N2C[C@H](OCC)C[C@H]2C(=O)NC2(CC(C)(C)C2)C(=O)N(C)[C@@H](C2CCCC2)C(=O)N(C)[C@H](C(=O)N(C)C)CC(=O)N(C)[C@@H](CCC)C(=O)N[C@@H](CC(C)C)C1=O [PP2514]
NRAS/KRAS (ratio of KD value with respect to NRAS to KD value with respect to KRAS) [1]: A (a compound having 10 or more and less than 20 is denoted as A)
HRAS/KRAS (ratio of KD value with respect to HRAS to KD value with respect to KRAS) [2]: B (a compound having 3 or more and less than 10 is denoted as B)

CC[C@H](C)[C@@H]1NC(=O)[C@H](CC)N(C)C(=O)C[C@@H](C(=O)N(C)C)N(C)C(=O)[C@H](C2CCCC2)N(C)C(=O)C2(CCC2)NC(=O)[C@H](C)N(C)C(=O)[C@H](CCc2cc(F)c(C(F)(F)F)c(F)c2)NC(=O)CN(C)C(=O)[C@H](Cc2ccc(C(F)(F)F)cc2)N2CC/C=C\C[C@@H](C2=O)N(C)C(=O)CN(C)C1=O [PP1146]
NRAS/KRAS (ratio of KD value with respect to NRAS to KD value with respect to KRAS) ([1]; KD ratio): A (a compound having 10 or more and less than 20 is denoted as A)
HRAS/KRAS (ratio of KD value with respect to HRAS to KD value with respect to KRAS) ([2]; KD ratio): B (a compound having 3 or more and less than 10 is denoted as B)

CC[C@@H]1C[C@H]2C(=O)NC3(CCCC3)C(=O)N(C)[C@@H](C3CCCC3)C(=O)N(C)[C@H](C(=O)N(C)CC)CC(=O)N(C)[C@@H](C)C(=O)N[C@@H]([C@@H](C)CC)C(=O)N(C)CC(=O)N(C)[C@H]3C/C=C\CCN(C3=O)[C@@H](Cc3ccc(C(F)(F)F)cc3)C(=O)N(C)CC(=O)N[C@@H](CCc3cc(F)c(C(F)(F)F)c(F)c3)C(=O)N2C1 [PP2271]
NRAS/KRAS (ratio of KD value with respect to NRAS to KD value with respect to KRAS) [1]: A (a compound having 10 or more and less than 20 is denoted as A)
HRAS/KRAS (ratio of KD value with respect to HRAS to KD value with respect to KRAS) [2]: A (a compound having 10 or more and less than 20 is denoted as A)

CCCN1C(=O)CN(C)C(=O)CN(CC)C(=O)[C@H]([C@@H](C)CC)NC(=O)[C@H](CC(C)C)N(C)C(=O)C[C@@H](C(=O)N(C)C)NC(=O)[C@H](C2CCCC2)N(C)C(=O)C2(CCCC2)NC(=O)[C@@H]2CC(F)(F)CN2C(=O)[C@H](CCc2ccc(C(F)(F)F)c(Cl)c2)NC(=O)CN(C)C(=O)[C@@H]1Cc1ccc(C(F)(F)F)cc1 [PP0369] ([NMeL]I[NEtG][Sar][NPrPhe(4-CF3)][Sar][hPhe(3-Cl-4-CF3)][Pro(4,4-F2)][Ac5c][NMeGly(cPent)]D-NMe2; lactam N-11)
NRAS/KRAS (ratio of KD for GDP-bound NRAS wild-type to KD for KRAS) ([1]; KD ratio NRAS/KRAS): B (a compound having 3 or more and less than 10 is denoted as B)
HRAS/KRAS (ratio of KD for GDP-bound HRAS wild-type to KD for KRAS) ([2]; KD ratio HRAS/KRAS): C (A compound having a KD ratio of 0.1 or more and less than 3 is denoted as C)

CCC(CC)[C@H]1C(=O)N(C)[C@H](C(=O)N(C)C)CC(=O)N(C)[C@H]2CCC/C=C/c3ccc(cc3)C[C@@H](C(=O)N(C)CC(=O)N[C@@H](CCc3ccc(Cl)c(Cl)c3)C(=O)N3CCC[C@H]3C(=O)NC3(CC(C)(C)C3)C(=O)N1C)N1CC/C=C\C[C@@H](C1=O)N(C)C(=O)CN(C)C(=O)[C@H]([C@@H](C)CC)NC2=O [PP2603]
NRAS/KRAS (ratio of KD value with respect to GDP-bound NRAS wild-type protein to KD value with respect to KRAS) ([1]; KD ratio NRAS/KRAS, class symbols): AA (a compound having 20 or more is denoted as AA)
HRAS/KRAS (ratio of KD value with respect to GDP-bound HRAS wild-type protein to KD value with respect to KRAS) ([2]; KD ratio HRAS/KRAS, class symbols): A (a compound having 10 or more and less than 20 is denoted as A)

CC[C@H](C)[C@@H]1NC(=O)[C@H](CC(C)C)N(C)C(=O)C[C@@H](C(=O)N2CCOCC2)N(C)C(=O)[C@H](C2CCCC2)N(C)C(=O)C2(CCCC2)NC(=O)[C@@H]2CCCN2C(=O)[C@H](CCc2ccc(C(F)(F)F)c(Cl)c2)NC(=O)CN(C)C(=O)[C@H](Cc2ccc(C)cc2)N(CCCOC)C(=O)CN(C)C(=O)CN(C)C1=O [PP0105] ([NMeL]I[Sar][Sar][X26][Sar][hPhe(3-Cl-4-CF3)]P[Ac5c][NMeGly(cPent)][NMeD]-Morpholide; lactam N-11)
NRAS/KRAS (ratio of KD for GDP-bound NRAS wild-type to KD for KRAS) ([1]; KD ratio NRAS/KRAS): B (a compound having 3 or more and less than 10 is denoted as B)
HRAS/KRAS (ratio of KD for GDP-bound HRAS wild-type to KD for KRAS) ([2]; KD ratio HRAS/KRAS): C (A compound having a KD ratio of 0.1 or more and less than 3 is denoted as C)
